Test system: T1, Kras G12D protein / SOS1 exchange domain
T1 construct: Cytoskeleton, Inc. (SOS1 exchange domain only) GE02
Assay: Kras-SOS exchange assay (MANT-GDP)
Type: biochemical
Details: for Relative fluorescence intensity: PhP072 500 uM, no irradiation
Description: MANT-GDP loading assay: Kras^G12D protein was first buffer exchanged into low magnesium buffer (20 mM HEPES-NaOH (pH 7.5), 50 mM NaCl, 0.5 mM MgCl2) using a NAP5 column (catalog no.: 17-0583-1, Cytiva). The proteins were then incubated with 20-fold molar excess of N-methylanthraniloyl (MANT)-GDP (catalog no.: 69244, Sigma-Aldrich) in loading buffer (50 mM NaCl, 20 mM HEPES-NaOH [pH 7.5], 0.5 mM MgCl2, 10 mM EDTA, and 1 mM Dithiothreitol (DTT)) in a total volume of 200 μL at 20 °C for 90 min. The reaction was stopped by adding MgCl2 to a final concentration of 10 mM, then incubated at 20 °C for 30 min. The unbound MANT-GDP was removed using the NAP-5 column equilibrated with nucleotide exchange buffer (40 mM HEPES-NaOH (pH 7.5), 50 mM NaCl, 10 mM MgCl2, 2 mM DTT).
MANT-GDP exchange assay: First the MANT-GDP bound Kras G12D protein (in a final 1 μM molar concentration) was preincubated with the inhibitor molecules for 60 min. After the preincubation the samples were exposed to UV light for 10 min with a wavelength of 366 nm. The UV-treated MANT-GDP Kras-inhibitor mix was loaded into a black 384 well microplate. The nucleotide exchange reaction was initiated by adding 100 fold molar excess of GppNHp (catalog no.: G0635, Sigma-Aldrich), a non-hydrolyzable GTP analog and the SOS1 exchange domain (catalog no.: GE02, Cytoskeleton, Inc.) protein in 0.5 μM final concentration. The change in fluorescence intensity was measured every 30 s in room temperature for 60 min on an EnSpire plate reader (PerkinElmer, Inc.). The measured fluorescence values were fitted to a single exponential function by using GraphPad Prism 8 software.

SMILES: Cc1ncc(CO)c(CNC(=O)CCC2(C)N=N2)c1O [PhP072, Cc1ncc(CO)c(c1O)CNC(=O)CCC2(C)N=N2]
- Relative fluorescence intensity (0 sec): 1
- Relative fluorescence intensity (30 sec): 1.013
- Relative fluorescence intensity (60 sec): 0.9959
- Relative fluorescence intensity (90 sec): 0.9972
- Relative fluorescence intensity (120 sec): 0.9718
- Relative fluorescence intensity (210 sec): 0.9336
- Relative fluorescence intensity (240 sec): 0.9413
- Relative fluorescence intensity (270 sec): 0.9207
- Relative fluorescence intensity (300 sec): 0.9231
- Relative fluorescence intensity (330 sec): 0.889
- Relative fluorescence intensity (360 sec): 0.9144
- Relative fluorescence intensity (390 sec): 0.8755
- Relative fluorescence intensity (420 sec): 0.8829
- Relative fluorescence intensity (450 sec): 0.8817
- Relative fluorescence intensity (480 sec): 0.8573
- Relative fluorescence intensity (510 sec): 0.8562
- Relative fluorescence intensity (540 sec): 0.8393
- Relative fluorescence intensity (570 sec): 0.8479
- Relative fluorescence intensity (600 sec): 0.8268
- Relative fluorescence intensity (630 sec): 0.8298
- Relative fluorescence intensity (660 sec): 0.82
- Relative fluorescence intensity (690 sec): 0.8367
- Relative fluorescence intensity (720 sec): 0.8123
- Relative fluorescence intensity (750 sec): 0.8188
- Relative fluorescence intensity (780 sec): 0.7895
- Relative fluorescence intensity (810 sec): 0.8173
- Relative fluorescence intensity (840 sec): 0.8044
- Relative fluorescence intensity (870 sec): 0.8078
- Relative fluorescence intensity (900 sec): 0.796
- Relative fluorescence intensity (930 sec): 0.7898
- Relative fluorescence intensity (960 sec): 0.7738
- Relative fluorescence intensity (990 sec): 0.7911
- Relative fluorescence intensity (1020 sec): 0.7808
- Relative fluorescence intensity (1050 sec): 0.7917
- Relative fluorescence intensity (1080 sec): 0.7685
- Relative fluorescence intensity (1110 sec): 0.7829
- Relative fluorescence intensity (1140 sec): 0.763
- Relative fluorescence intensity (1170 sec): 0.7869
- Relative fluorescence intensity (1200 sec): 0.7802
- Relative fluorescence intensity (1230 sec): 0.7626
- Relative fluorescence intensity (1260 sec): 0.7487
- Relative fluorescence intensity (1290 sec): 0.7649
- Relative fluorescence intensity (1320 sec): 0.7515
- Relative fluorescence intensity (1350 sec): 0.7769
- Relative fluorescence intensity (1380 sec): 0.7498
- Relative fluorescence intensity (1410 sec): 0.7689
- Relative fluorescence intensity (1440 sec): 0.7375
- Relative fluorescence intensity (1470 sec): 0.7324
- Relative fluorescence intensity (1500 sec): 0.7377
- Relative fluorescence intensity (1530 sec): 0.7512
- Relative fluorescence intensity (1560 sec): 0.7561
- Relative fluorescence intensity (1590 sec): 0.7642
- Relative fluorescence intensity (1620 sec): 0.7532
- Relative fluorescence intensity (1650 sec): 0.7322
- Relative fluorescence intensity (1680 sec): 0.7337
- Relative fluorescence intensity (1710 sec): 0.7447
- Relative fluorescence intensity (1740 sec): 0.7262
- Relative fluorescence intensity (1770 sec): 0.7004
- Relative fluorescence intensity (1800 sec): 0.7223
- Relative fluorescence intensity (1830 sec): 0.7275
- Relative fluorescence intensity (1860 sec): 0.7142
- Relative fluorescence intensity (1890 sec): 0.7142
- Relative fluorescence intensity (1920 sec): 0.7251
- Relative fluorescence intensity (1950 sec): 0.7143
- Relative fluorescence intensity (1980 sec): 0.7167
- Relative fluorescence intensity (2010 sec): 0.7199
- Relative fluorescence intensity (2040 sec): 0.7182
- Relative fluorescence intensity (2070 sec): 0.7197
- Relative fluorescence intensity (2100 sec): 0.7234
- Relative fluorescence intensity (2130 sec): 0.7107
- Relative fluorescence intensity (2160 sec): 0.709
- Relative fluorescence intensity (2190 sec): 0.6857
- Relative fluorescence intensity (2220 sec): 0.7212
- Relative fluorescence intensity (2250 sec): 0.7309
- Relative fluorescence intensity (2280 sec): 0.698
- Relative fluorescence intensity (2310 sec): 0.6941
- Relative fluorescence intensity (2340 sec): 0.715
- Relative fluorescence intensity (2370 sec): 0.7148
- Relative fluorescence intensity (2400 sec): 0.6907
- Relative fluorescence intensity (2430 sec): 0.6865
- Relative fluorescence intensity (2460 sec): 0.6802
- Relative fluorescence intensity (2490 sec): 0.7113
- Relative fluorescence intensity (2520 sec): 0.7022
- Relative fluorescence intensity (2550 sec): 0.6719
- Relative fluorescence intensity (2580 sec): 0.6958
- Relative fluorescence intensity (2910 sec): 0.6843
- Relative fluorescence intensity (2940 sec): 0.6708
- Relative fluorescence intensity (2970 sec): 0.6872
- Relative fluorescence intensity (3000 sec): 0.6826
- Relative fluorescence intensity (3030 sec): 0.6877
- Relative fluorescence intensity (3060 sec): 0.6798
- Relative fluorescence intensity (3090 sec): 0.6889
- Relative fluorescence intensity (3120 sec): 0.6845
- Relative fluorescence intensity (3150 sec): 0.6654
- Relative fluorescence intensity (3180 sec): 0.6759
- Relative fluorescence intensity (3210 sec): 0.6861
- Relative fluorescence intensity (3240 sec): 0.6538
- Relative fluorescence intensity (3270 sec): 0.6954
- Relative fluorescence intensity (3300 sec): 0.6785
- Relative fluorescence intensity (3330 sec): 0.6776
- normalized signal, Kras-SOS exchange (Figure 4c PhP072 irradiation) (Php072 500 uM, irradiation, time 0 sec): 1
